Common to all, as to format: biochemical
One assay addresses CDK2/CCNE1 (Homo sapiens, UniProt P24941). Description: CDK2 homogeneous time-resolved fluorescence (HTRF) kinase assay. Conditions: CDK2/CCNE. The gist of the method: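 3 nM CDK2/CCNE1 was preincubated with compound for 20 min at 23 °C in HEPES buffer (pH not stated), then reacted 60 min with 1 mM ATP and 50 nM ULight-4E-BP1 (Thr37/46) peptide. After EDTA stop, Eu-anti-phospho-4E-BP1 antibody (2 nM) was added for 60 min and TR-FRET read at 665 nm.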

Another assay concerns the target CDK1/CCNB1 (Homo sapiens, UniProt P06493). Description: CDK1 homogeneous time-resolved fluorescence (HTRF) kinase assay. To be noted: CDK1/CCNB. In a few lines:
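CDK1/CCNB1 0.5 nM + cpd, 20 min 23 °C; add 1 mM ATP, 50 nM ULight-4E-BP1 peptide, 60 min 23 °C; stop 10 mM EDTA; 2 nM Eu-Ab, 60 min; HTRF 665 nm. 11-pt half-log, top 10 μM typical; IC50.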
A general note: In TR-FRET formats the signal depends on donor and acceptor labels being close together.

The target of the next assay is CDK4/CCND3 (Homo sapiens, UniProt P11802). Kind of assay: CDK4 homogeneous time-resolved fluorescence (HTRF) kinase assay. To be noted: CDK4/CCND. The gist of the method:
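CDK4/CCND3 at 1.5 nM was preincubated with compound for 20 min at 23 °C, then reacted for 60 min with 1 mM ATP and 50 nM ULight-4E-BP1 (Thr37/46) peptide. The reaction was stopped with EDTA, and phosphorylation was read by HTRF with a Eu-anti-phospho antibody. IC50 values came from 11-point half-log titrations, typically from 10 μM.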

A further assay deals with CDK6/CCND1 (Homo sapiens, UniProt Q00534). Kind of assay: CDK6 homogeneous time-resolved fluorescence (HTRF) kinase assay. To be noted: CDK6/CCND. The gist of the method: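 Enzyme pre-incubated 20 min at 23 °C with compound, then reacted 60 min at 23 °C with 1 mM ATP and 50 nM ULight-4E-BP1 (Thr37/46) peptide; 1 nM enzyme, 1% DMSO. EDTA-stopped, Eu-anti-phospho antibody TR-FRET read (665 nm or 665/615 ratio); 11-point half-log titration from 10 μM gave IC50.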

Where [1] appears, read: 25-250 nM marked x, read-out: CDK2/CCNE IC50 25-250 nM.
The mark [2] stands for this setting: >250 nM marked x, read-out: CDK1/CCNB IC50 >250 nM.
[3] abbreviates: >250 nM marked x, read-out: CDK4/CCND IC50 >250 nM.
[4] abbreviates: >250 nM marked x, read-out: CDK6/CCND IC50 >250 nM.
Where [5] appears, read: <25 nM, read-out: CDK2/CCNE IC50 <25 nM.
The mark [6] stands for this setting: x = IC50 <25 nM, read-out: CDK2/CCNE IC50 (<25 nM).
The mark [7] stands for this setting: x = IC50 >250 nM, read-out: CDK1/CCNB IC50 (>250 nM column).
Where [8] appears, read: x = IC50 >250 nM, read-out: CDK4/CCND IC50 (>250 nM column).
[9] abbreviates: x = IC50 >250 nM, read-out: CDK6/CCND IC50 (>250 nM column).

Drawing on US20260325533A1, “CDK INHIBITOR COMPOUNDS” (ALEKSIA THERAPEUTICS, INC., priority 2023, published 2026), this text covers IC50 for 16 compounds.

Where two headings read alike, the source gives them in different places.

CDK4/CCND3, sequence (P11802 whole entry): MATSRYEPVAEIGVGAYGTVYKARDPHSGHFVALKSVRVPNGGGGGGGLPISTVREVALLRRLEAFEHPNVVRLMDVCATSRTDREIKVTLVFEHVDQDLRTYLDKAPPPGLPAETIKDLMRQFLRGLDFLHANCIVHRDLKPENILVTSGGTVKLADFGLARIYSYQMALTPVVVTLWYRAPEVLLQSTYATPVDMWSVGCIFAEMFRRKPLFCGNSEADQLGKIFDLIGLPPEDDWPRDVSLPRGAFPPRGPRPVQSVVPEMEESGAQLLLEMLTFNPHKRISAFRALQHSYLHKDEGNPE
CDK4/CCND3, sequence (P30281 whole entry partner): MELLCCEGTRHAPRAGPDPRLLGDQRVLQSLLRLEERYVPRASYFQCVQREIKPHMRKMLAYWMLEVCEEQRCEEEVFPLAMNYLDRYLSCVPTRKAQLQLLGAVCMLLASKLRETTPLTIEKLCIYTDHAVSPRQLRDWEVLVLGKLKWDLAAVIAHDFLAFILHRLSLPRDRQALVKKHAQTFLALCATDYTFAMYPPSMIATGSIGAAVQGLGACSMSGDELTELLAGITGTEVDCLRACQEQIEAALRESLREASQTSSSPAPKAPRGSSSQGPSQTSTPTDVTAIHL
CDK1/CCNB1, sequence (P06493 whole entry): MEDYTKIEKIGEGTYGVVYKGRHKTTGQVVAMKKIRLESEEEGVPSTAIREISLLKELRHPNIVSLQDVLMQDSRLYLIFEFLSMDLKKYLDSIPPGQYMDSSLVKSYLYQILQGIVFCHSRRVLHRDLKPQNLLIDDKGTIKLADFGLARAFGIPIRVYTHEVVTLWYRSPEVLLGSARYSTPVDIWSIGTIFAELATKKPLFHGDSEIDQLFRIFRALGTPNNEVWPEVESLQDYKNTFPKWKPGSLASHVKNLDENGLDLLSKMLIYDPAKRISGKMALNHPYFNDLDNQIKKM
CDK1/CCNB1, sequence (P14635 whole entry partner): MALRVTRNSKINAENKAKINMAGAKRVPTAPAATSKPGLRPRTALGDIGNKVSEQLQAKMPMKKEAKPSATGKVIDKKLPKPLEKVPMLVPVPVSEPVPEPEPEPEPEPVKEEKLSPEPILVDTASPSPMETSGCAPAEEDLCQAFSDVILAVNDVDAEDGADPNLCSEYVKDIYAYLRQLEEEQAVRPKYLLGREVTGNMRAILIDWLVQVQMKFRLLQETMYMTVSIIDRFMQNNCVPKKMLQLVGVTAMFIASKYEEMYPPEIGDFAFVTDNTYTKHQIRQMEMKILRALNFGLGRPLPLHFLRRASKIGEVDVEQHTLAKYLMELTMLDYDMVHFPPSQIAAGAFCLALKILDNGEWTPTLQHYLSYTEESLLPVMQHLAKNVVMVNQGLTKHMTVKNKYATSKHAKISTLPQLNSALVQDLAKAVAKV
CDK6/CCND1, sequence (Q00534 whole entry): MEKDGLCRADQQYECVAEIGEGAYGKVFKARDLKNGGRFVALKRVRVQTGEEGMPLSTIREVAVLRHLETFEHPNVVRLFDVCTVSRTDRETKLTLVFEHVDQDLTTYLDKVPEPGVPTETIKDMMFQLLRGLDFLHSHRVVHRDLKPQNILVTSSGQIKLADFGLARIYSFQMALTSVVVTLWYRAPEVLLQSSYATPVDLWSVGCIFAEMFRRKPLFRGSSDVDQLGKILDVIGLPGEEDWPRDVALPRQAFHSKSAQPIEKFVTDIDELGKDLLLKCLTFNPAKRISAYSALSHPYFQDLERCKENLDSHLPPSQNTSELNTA
CDK6/CCND1, sequence (P24385 whole entry partner): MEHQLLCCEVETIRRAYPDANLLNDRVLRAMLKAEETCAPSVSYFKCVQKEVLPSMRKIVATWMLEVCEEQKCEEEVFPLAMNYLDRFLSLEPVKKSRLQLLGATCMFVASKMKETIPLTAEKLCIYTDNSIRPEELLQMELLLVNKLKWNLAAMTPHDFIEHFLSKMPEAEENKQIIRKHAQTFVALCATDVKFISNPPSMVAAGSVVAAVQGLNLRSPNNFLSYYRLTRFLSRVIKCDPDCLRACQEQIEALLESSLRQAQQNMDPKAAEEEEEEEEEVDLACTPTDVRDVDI

On to `CCC1(CC)C(=O)Nc2cc(C#Cc3nccc4cnc(Nc5ccc(S(=O)(=O)C6CC(F)(F)C6)cc5OC)cc34)ccc21` [Ex 277, 6-((7-((4-((3,3-difluorocyclobutyl)sulfonyl)-2-methoxyphenyl)amino)-2,6-naphthyridin-1-yl)ethynyl)-3,3-diethylindolin-2-one], for which the IC50 at CDK2/CCNE1 (setting [1]) is 25 to 250 nM; at CDK1/CCNB1 (setting [2]), above 250 nM; on CDK4/CCND3 (setting [3]) it was above 250 nM; on CDK6/CCND1 (setting [4]), above 250 nM.
As to `O=C1Nc2cc(C#Cc3nccc4cnc(Nc5ccc(S(=O)(=O)CC(F)(F)F)cc5)cc34)ccc2C12CC2` [Ex 282, 6'-((7-((4-((2,2,2-trifluoroethyl)sulfonyl)phenyl)amino)-2,6-naphthyridin-1-yl)ethynyl)spiro[cyclopropane-1,3'-indolin]-2'-one], the IC50 is below 25 nM at CDK2/CCNE1 (setting [5]), above 250 nM at CDK1/CCNB1 (setting [2]), above 250 nM on CDK4/CCND3 (setting [3]) and above 250 nM on CDK6/CCND1 (setting [4]).
Consider `CCC1(CC)C(=O)Nc2cc(C#Cc3nccc4cnc(Nc5ccc(S(=O)(=O)CC(F)(F)F)cc5F)cc34)ccc21` [Ex 283, 3,3-diethyl-6-((7-((2-fluoro-4-((2,2,2-trifluoroethyl)sulfonyl)phenyl)amino)-2,6-naphthyridin-1-yl)ethynyl)indolin-2-one], for which the IC50 at CDK2/CCNE1 (>250 nM marked x, read-out: CDK2/CCNE IC50 >250 nM) was above 250 nM; on CDK1/CCNB1 (setting [2]) it was above 250 nM; on CDK4/CCND3 (setting [3]) it was above 250 nM; at CDK6/CCND1 (setting [4]), above 250 nM.
Turning to `CCC1(CC)C(=O)Nc2cc(C#Cc3nccc4cnc(Nc5ccc(S(=O)(=O)CC(F)(F)F)cc5C)cc34)ccc21` [Ex 286, 3,3-diethyl-6-((7-((2-methyl-4-((2,2,2-trifluoroethyl)sulfonyl)phenyl)amino)-2,6-naphthyridin-1-yl)ethynyl)indolin-2-one], the IC50 is 25 to 250 nM at CDK2/CCNE1 (setting [1]), above 250 nM at CDK1/CCNB1 (setting [2]), above 250 nM on CDK4/CCND3 (setting [3]) and above 250 nM at CDK6/CCND1 (setting [4]).
In the case of `CC1(C)C(=O)Nc2cc(C#Cc3nccc4cnc(Nc5ccc(S(C)(=O)=O)cc5C(F)F)cc34)ccc21` [Ex 312, 6-((7-((2-(difluoromethyl)-4-(methylsulfonyl)phenyl)amino)-2,6-naphthyridin-1-yl)ethynyl)-3,3-dimethylindolin-2-one], the IC50 is below 25 nM on CDK2/CCNE1 (setting [5]), above 250 nM at CDK1/CCNB1 (setting [2]), above 250 nM on CDK4/CCND3 (setting [3]) and above 250 nM on CDK6/CCND1 (setting [4]).
In the case of `CCC1(CC)C(=O)Nc2cc(C#Cc3nccc4cnc(Nc5ccc(S(=O)(=O)C(C)C)cc5OC)cc34)ccc21` [Ex 338, 3,3-diethyl-6-((7-((4-(isopropylsulfonyl)-2-methoxyphenyl)amino)-2,6-naphthyridin-1-yl)ethynyl)indolin-2-one], the IC50 on CDK2/CCNE1 (setting [1]) was 25 to 250 nM; at CDK1/CCNB1 (setting [2]), above 250 nM; at CDK4/CCND3 (setting [3]), above 250 nM; on CDK6/CCND1 (setting [4]), above 250 nM.
Turning to `Cc1cc(S(C)(=O)=O)ccc1Nc1cc2c(C#Cc3cc4c(cc3F)C(C)(C)C(=O)N4)nccc2cn1` [Ex 342, 5-fluoro-3,3-dimethyl-6-((7-((2-methyl-4-(methylsulfonyl)phenyl)amino)-2,6-naphthyridin-1-yl)ethynyl)indolin-2-one], the IC50 at CDK2/CCNE1 (setting [5]) is below 25 nM; on CDK1/CCNB1 (setting [2]), above 250 nM; at CDK4/CCND3 (setting [3]), above 250 nM; on CDK6/CCND1 (setting [4]) it was above 250 nM.
Turning to `Cc1cc(S(C)(=O)=O)ccc1Nc1cc2c(C#Cc3ccc4c(c3)NC(=O)C43CC3)nccc2cn1` [Ex 351, 6'-((7-((2-methyl-4-(methylsulfonyl)phenyl)amino)-2,6-naphthyridin-1-yl)ethynyl)spiro[cyclopropane-1,3'-indolin]-2'-one], the IC50 at CDK2/CCNE1 (setting [6]) was below 25 nM; at CDK1/CCNB1 (setting [7]), above 250 nM; at CDK4/CCND3 (setting [8]) it was above 250 nM; on CDK6/CCND1 (setting [9]) it was above 250 nM.
As for `CC1(C)C(=O)Nc2cc(C#Cc3nccc4cnc(Nc5ccc(S(C)(=O)=O)cc5C(F)(F)F)cc34)ccc21` [Ex 352, 3,3-dimethyl-6-((7-((4-(methylsulfonyl)-2-(trifluoromethyl)phenyl)amino)-2,6-naphthyridin-1-yl)ethynyl)indolin-2-one], the IC50 is above 250 nM at CDK2/CCNE1 (x = IC50 >250 nM, read-out: CDK2/CCNE IC50 (>250 nM column)); above 250 nM on CDK1/CCNB1 (setting [7]); above 250 nM at CDK4/CCND3 (setting [8]); above 250 nM at CDK6/CCND1 (setting [9]).
In the case of `CCS(=O)(=O)c1ccc(Nc2cc3c(C#Cc4ccc5c(c4)NC(=O)C54CC4)nccc3cn2)c(C)c1` [Ex 356, 6'-((7-((4-(ethylsulfonyl)-2-methylphenyl)amino)-2,6-naphthyridin-1-yl)ethynyl)spiro[cyclopropane-1,3'-indolin]-2'-one], the IC50 at CDK2/CCNE1 (setting [6]) is below 25 nM; at CDK1/CCNB1 (x = IC50 25-250 nM, read-out: CDK1/CCNB IC50 (25-250 nM)), 25 to 250 nM; at CDK4/CCND3 (setting [8]), above 250 nM; at CDK6/CCND1 (setting [9]) it was above 250 nM.
For `CCS(=O)(=O)c1ccc(Nc2cc3c(C#Cc4ccc5c(c4)NC(=O)C54CC4)nccc3cn2)c(OC)c1` [Ex 357, 6'-((7-((4-(ethylsulfonyl)-2-methoxyphenyl)amino)-2,6-naphthyridin-1-yl)ethynyl)spiro[cyclopropane-1,3'-indolin]-2'-one], the IC50 at CDK2/CCNE1 (setting [6]) is below 25 nM; at CDK1/CCNB1 (setting [7]), above 250 nM; on CDK4/CCND3 (setting [8]) it was above 250 nM; on CDK6/CCND1 (setting [9]) it was above 250 nM.
As to `COc1cc(S(C)(=O)=O)ccc1Nc1cc2c(C#Cc3ccc4c(c3)NC(=O)C43CCC3)nccc2cn1` [Ex 361, 6'-((7-((2-methoxy-4-(methylsulfonyl)phenyl)amino)-2,6-naphthyridin-1-yl)ethynyl)spiro[cyclobutane-1,3'-indolin]-2'-one], the IC50 was below 25 nM at CDK2/CCNE1 (setting [6]), above 250 nM at CDK1/CCNB1 (setting [7]), above 250 nM at CDK4/CCND3 (setting [8]) and above 250 nM on CDK6/CCND1 (setting [9]).
For the compound `CCC1(CC)C(=O)Nc2cc(C#Cc3nccc4cnc(Nc5ccc(S(=O)(=O)C(C)C)cc5C)cc34)ccc21` [Ex 369, 3,3-diethyl-6-((7-((4-(isopropylsulfonyl)-2-methylphenyl)amino)-2,6-naphthyridin-1-yl)ethynyl)indolin-2-one], the IC50 at CDK2/CCNE1 (setting [6]) was below 25 nM; on CDK1/CCNB1 (setting [7]), above 250 nM; on CDK4/CCND3 (setting [8]) it was above 250 nM; on CDK6/CCND1 (setting [9]), above 250 nM.
Take `CCC1(CC)C(=O)Nc2cc(C#Cc3nccc4cnc(Nc5ccc(S(=O)(=O)CC)cc5C)cc34)ccc21` [Ex 370, 3,3-diethyl-6-((7-((4-(ethylsulfonyl)-2-methylphenyl)amino)-2,6-naphthyridin-1-yl)ethynyl)indolin-2-one]: the IC50 at CDK2/CCNE1 (setting [6]) is below 25 nM; at CDK1/CCNB1 (setting [7]), above 250 nM; on CDK4/CCND3 (setting [8]), above 250 nM; on CDK6/CCND1 (setting [9]), above 250 nM.
For `CCC1(CC)C(=O)Nc2cc(C#Cc3nccc4cnc(Nc5ccc(S(=O)(=O)CC)cc5OC)cc34)ccc21` [Ex 371, 3,3-diethyl-6-((7-((4-(ethylsulfonyl)-2-methoxyphenyl)amino)-2,6-naphthyridin-1-yl)ethynyl)indolin-2-one], the IC50 on CDK2/CCNE1 (setting [6]) is below 25 nM; at CDK1/CCNB1 (setting [7]) it was above 250 nM; at CDK4/CCND3 (setting [8]), above 250 nM; on CDK6/CCND1 (setting [9]), above 250 nM.
Regarding `COc1cc(S(C)(=O)=O)ccc1Nc1cc2c(C#Cc3ccc4c(c3)NC(=O)C43CC3)nccc2cn1` [Ex 375, 6'-((7-((2-methoxy-4-(methylsulfonyl)phenyl)amino)-2,6-naphthyridin-1-yl)ethynyl)spiro[cyclopropane-1,3'-indolin]-2'-one], the IC50 at CDK2/CCNE1 (setting [6]) was below 25 nM; at CDK1/CCNB1 (setting [7]), above 250 nM; at CDK4/CCND3 (setting [8]), above 250 nM; at CDK6/CCND1 (setting [9]) it was above 250 nM.
